In one assay the target is T1, WT EGFR kinase domain (Homo sapiens, UniProt P00533).
T1 construct: The EGFR kinase domain (residues 696–1022) was cloned into pTriEx; 6xHis (N, cleaved yes); GST (N, cleaved yes); made in house; host or cells: SF9 insect cells, baculovirus
Nature of the assay: HTRF KinEASE-TK kinase activity assay. The class given is biochemical. Conditions: enzyme 10 nM, ATP 100 µM; read-out: Biochemical EGFR IC50, WT.

A further assay deals with T2, MLCK (Homo sapiens, UniProt Q32MK0).
T2 construct: purchased Eurofins DiscoverX Corporation
Kind of assay: KINOMEscan. The class given is binding. Conditions: 1 μM.

The target in the next assay is PRKD3 (Homo sapiens, UniProt O94806). Kind of assay: KINOMEscan. The assay is classed as binding. The settings on record: 1 μM.
For a further assay, the target named is T3, BTK (Homo sapiens, UniProt Q06187).
T3 construct: purchased Eurofins DiscoverX Corporation (KINOMEscan)
T3 sequence (Q06187 whole entry): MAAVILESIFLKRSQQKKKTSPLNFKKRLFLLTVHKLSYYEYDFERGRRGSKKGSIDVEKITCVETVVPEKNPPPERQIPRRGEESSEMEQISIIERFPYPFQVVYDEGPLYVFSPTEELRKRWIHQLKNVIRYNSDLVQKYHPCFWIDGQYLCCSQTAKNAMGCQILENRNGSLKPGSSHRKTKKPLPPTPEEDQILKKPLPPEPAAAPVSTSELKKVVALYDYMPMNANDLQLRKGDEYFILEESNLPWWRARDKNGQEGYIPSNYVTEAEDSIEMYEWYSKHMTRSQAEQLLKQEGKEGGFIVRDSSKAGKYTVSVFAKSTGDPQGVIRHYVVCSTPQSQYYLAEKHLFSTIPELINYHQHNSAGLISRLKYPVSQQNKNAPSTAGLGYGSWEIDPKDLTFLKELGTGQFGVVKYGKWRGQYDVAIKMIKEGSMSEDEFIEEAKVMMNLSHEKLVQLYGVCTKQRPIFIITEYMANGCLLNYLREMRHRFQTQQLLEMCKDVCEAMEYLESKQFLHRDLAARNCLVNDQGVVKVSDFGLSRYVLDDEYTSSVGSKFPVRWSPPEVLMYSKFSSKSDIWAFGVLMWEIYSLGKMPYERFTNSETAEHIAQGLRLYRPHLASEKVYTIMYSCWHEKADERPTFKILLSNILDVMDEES
Kind of assay: KINOMEscan. The class given is binding. Conditions: 1 μM.

The target of the next assay is T4, CSNK1G3 (Homo sapiens, UniProt Q9Y6M4).
T4 construct: purchased Eurofins DiscoverX Corporation
Kind of assay: KINOMEscan. The class given is binding. Conditions: 1 μM.

A further assay deals with T5, CSNK1A1L (Homo sapiens, UniProt Q8N752).
T5 construct: purchased Eurofins DiscoverX Corporation
Kind of assay: KINOMEscan. The assay is classed as binding. The settings on record: 1 μM.

A further assay relates to 468 kinases. Nature of the assay: KINOMEscan selectivity score. The assay is classed as binding. Conditions: 1 μM.
The target in another assay is EGFR(L858R+T790M) (Homo sapiens, UniProt P00533, L858R/T790M). Kind of assay: KINOMEscan. The class given is binding. The settings on record: 1 μM.
The target of the next assay is T6, MLK2 (Homo sapiens, UniProt Q02779).
T6 construct: purchased Eurofins DiscoverX Corporation
Kind of assay: KINOMEscan. The class given is binding. The settings on record: 1 μM.

The target in a further assay is SRC (Homo sapiens, UniProt P12931). Kind of assay: KINOMEscan. The assay is classed as binding. The settings on record: 1 μM.
A further assay has as its target S6K1 (Homo sapiens, UniProt P23443). Kind of assay: KINOMEscan. The class given is binding. The settings on record: 1 μM.
Another assay has as its target T7, CAMK2D (Homo sapiens, UniProt Q13557).
T7 construct: purchased Eurofins DiscoverX Corporation (KINOMEscan)
Kind of assay: KINOMEscan. The assay is classed as binding. The settings on record: 1 μM.

The target of another assay is T8, CAMK1 (Homo sapiens, UniProt Q14012).
T8 construct: purchased Eurofins DiscoverX Corporation (KINOMEscan)
Kind of assay: KINOMEscan. The assay is classed as binding. The settings on record: 1 μM.

A further assay addresses CDK4-cyclinD1 (Homo sapiens, UniProt P11802). Nature of the assay: KINOMEscan. The class given is binding. Conditions: 1 μM.
The next assay has as its target T9, CASK (Homo sapiens, UniProt O14936).
T9 construct: purchased Eurofins DiscoverX Corporation (KINOMEscan)
Nature of the assay: KINOMEscan. The class given is binding. The settings on record: 1 μM.

The target of a further assay is ACVR2A (Homo sapiens, UniProt P27037). Nature of the assay: KINOMEscan. The assay is classed as binding. Conditions: 1 μM.
Another assay deals with T10, TNK1 (Homo sapiens, UniProt Q13470).
T10 construct: purchased Eurofins DiscoverX Corporation
Nature of the assay: KINOMEscan. The assay is classed as binding. The settings on record: 1 μM.

The next assay addresses T11, GRK3 (Homo sapiens, UniProt P35626).
T11 construct: purchased Eurofins DiscoverX Corporation
Kind of assay: KINOMEscan. The class given is binding. Conditions: 1 μM.

The target in the next assay is T12, CSNK1G2 (Homo sapiens, UniProt P78368).
T12 construct: purchased Eurofins DiscoverX Corporation
T12 sequence (P78368 whole entry): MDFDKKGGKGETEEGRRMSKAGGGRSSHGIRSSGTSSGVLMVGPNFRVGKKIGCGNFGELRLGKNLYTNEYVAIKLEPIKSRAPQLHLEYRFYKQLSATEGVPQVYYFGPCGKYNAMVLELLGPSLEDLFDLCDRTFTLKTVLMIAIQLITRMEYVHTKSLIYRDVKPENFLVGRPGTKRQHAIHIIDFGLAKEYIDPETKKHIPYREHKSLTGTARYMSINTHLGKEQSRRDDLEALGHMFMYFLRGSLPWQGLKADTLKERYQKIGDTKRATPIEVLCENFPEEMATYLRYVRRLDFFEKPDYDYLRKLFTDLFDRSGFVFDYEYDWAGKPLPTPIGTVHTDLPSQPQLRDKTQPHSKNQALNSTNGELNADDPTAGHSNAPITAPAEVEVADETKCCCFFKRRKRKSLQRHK
Kind of assay: KINOMEscan. The settings on record: 1 μM. The class given is binding.

In the next assay the target is YANK3 (Homo sapiens, UniProt Q86UX6). Kind of assay: KINOMEscan. The class given is binding. Conditions: 1 μM.
Another assay has as its target T13, HPK1 (Homo sapiens, UniProt Q92918).
T13 construct: purchased Eurofins DiscoverX (KINOMEscan)
Kind of assay: KINOMEscan. The class given is binding. Conditions: 1 μM.

A further assay concerns the target T14, DAPK1 (Homo sapiens, UniProt P53355).
T14 construct: purchased Eurofins DiscoverX Corporation
Nature of the assay: KINOMEscan. The class given is binding. The settings on record: 1 μM.

Assay [1] deals with RPS6KA5(Kin.Dom.2-C-terminal) (Homo sapiens, UniProt O75582). Kind of assay: KINOMEscan. The assay is classed as binding. Conditions: 1 μM.
A further assay addresses T15, CSNK1E (Homo sapiens, UniProt P49674).
T15 construct: purchased Eurofins DiscoverX Corporation
Kind of assay: KINOMEscan. The class given is binding. The settings on record: 1 μM.

In the next assay the target is YSK1 (Homo sapiens, UniProt O00506). Nature of the assay: KINOMEscan. Conditions: 1 μM. The class given is binding.
Another assay deals with ALK(C1156Y) (Homo sapiens, UniProt Q9UM73, C1156Y). Kind of assay: KINOMEscan. The assay is classed as binding. The settings on record: 1 μM.
Assay [2] addresses T16, ABL1(Q252H)-phosphorylated (Homo sapiens, UniProt P00519, Q252H).
T16 construct: purchased Eurofins DiscoverX Corporation
Nature of the assay: KINOMEscan. The class given is binding. The settings on record: 1 μM.

In a further assay the target is T17, HUNK (Homo sapiens, UniProt P57058).
T17 construct: purchased Eurofins DiscoverX (KINOMEscan)
T17 sequence (P57058 whole entry): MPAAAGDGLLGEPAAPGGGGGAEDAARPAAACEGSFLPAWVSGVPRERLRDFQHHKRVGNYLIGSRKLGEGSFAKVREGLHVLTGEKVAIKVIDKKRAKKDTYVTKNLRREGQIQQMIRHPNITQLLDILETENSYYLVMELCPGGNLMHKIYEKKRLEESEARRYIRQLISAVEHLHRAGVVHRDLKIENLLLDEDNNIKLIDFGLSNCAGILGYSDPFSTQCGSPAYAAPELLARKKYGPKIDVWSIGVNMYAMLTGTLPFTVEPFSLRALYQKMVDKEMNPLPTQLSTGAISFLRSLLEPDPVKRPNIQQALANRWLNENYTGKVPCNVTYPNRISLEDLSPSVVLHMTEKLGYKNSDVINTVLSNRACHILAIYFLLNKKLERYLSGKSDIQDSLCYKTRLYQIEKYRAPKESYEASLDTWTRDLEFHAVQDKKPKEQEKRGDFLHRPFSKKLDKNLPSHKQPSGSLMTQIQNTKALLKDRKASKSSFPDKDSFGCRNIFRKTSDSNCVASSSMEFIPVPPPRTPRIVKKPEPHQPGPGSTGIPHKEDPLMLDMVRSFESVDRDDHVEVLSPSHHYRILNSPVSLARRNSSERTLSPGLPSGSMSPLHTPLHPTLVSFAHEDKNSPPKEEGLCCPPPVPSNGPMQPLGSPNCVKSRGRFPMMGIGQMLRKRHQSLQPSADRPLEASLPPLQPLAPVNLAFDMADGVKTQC
Nature of the assay: KINOMEscan. Conditions: 1 μM. The assay is classed as binding.

A further assay addresses NEK9 (Homo sapiens, UniProt Q8TD19). Nature of the assay: KINOMEscan. The assay is classed as binding. The settings on record: 1 μM.
The target of a further assay is PIK3CA(E545K) (Homo sapiens, UniProt P42336, E545K). Nature of the assay: KINOMEscan. The class given is binding. The settings on record: 1 μM.
In a further assay the target is T18, MEK1 (Homo sapiens, UniProt Q02750).
T18 construct: purchased Eurofins DiscoverX Corporation
Kind of assay: KINOMEscan. The assay is classed as binding. Conditions: 1 μM.

In the next assay the target is ERBB2 (Homo sapiens, UniProt P04626). Nature of the assay: KINOMEscan. The settings on record: 1 μM. The class given is binding.
For the next assay, the target named is RIPK4 (Homo sapiens, UniProt P57078). Nature of the assay: KINOMEscan. Conditions: 1 μM. The assay is classed as binding.
The target of another assay is p38-gamma (Homo sapiens, UniProt P53778). Nature of the assay: KINOMEscan. The class given is binding. The settings on record: 1 μM.
For the next assay, the target named is AURKA (Homo sapiens, UniProt O14965). Nature of the assay: KINOMEscan. The class given is binding. Conditions: 1 μM.
In a further assay the target is T19, MEK6 (Homo sapiens, UniProt P52564).
T19 construct: purchased Eurofins DiscoverX Corporation
Kind of assay: KINOMEscan. The assay is classed as binding. Conditions: 1 μM.

Another assay concerns the target T20, DMPK (Homo sapiens, UniProt Q09013).
T20 construct: purchased Eurofins DiscoverX Corporation
Nature of the assay: KINOMEscan. The settings on record: 1 μM. The assay is classed as binding.

For another assay, the target named is T21, MAP3K15 (Homo sapiens, UniProt Q6ZN16).
T21 construct: purchased Eurofins DiscoverX Corporation
Nature of the assay: KINOMEscan. The class given is binding. The settings on record: 1 μM.

In a further assay the target is WEE2 (Homo sapiens, UniProt P0C1S8). Nature of the assay: KINOMEscan. The class given is binding. The settings on record: 1 μM.
For another assay, the target named is T22, KIT(L576P) (Homo sapiens, UniProt P10721, L576P).
T22 construct: purchased Eurofins DiscoverX (KINOMEscan)
Nature of the assay: KINOMEscan. The assay is classed as binding. Conditions: 1 μM.

In another assay the target is T23, CAMK1G (Homo sapiens, UniProt Q96NX5).
T23 construct: purchased Eurofins DiscoverX Corporation (KINOMEscan)
Kind of assay: KINOMEscan. The assay is classed as binding. The settings on record: 1 μM.

Where only a bound is given, the exact number is not on record here.

T11 sequence (P35626 whole entry): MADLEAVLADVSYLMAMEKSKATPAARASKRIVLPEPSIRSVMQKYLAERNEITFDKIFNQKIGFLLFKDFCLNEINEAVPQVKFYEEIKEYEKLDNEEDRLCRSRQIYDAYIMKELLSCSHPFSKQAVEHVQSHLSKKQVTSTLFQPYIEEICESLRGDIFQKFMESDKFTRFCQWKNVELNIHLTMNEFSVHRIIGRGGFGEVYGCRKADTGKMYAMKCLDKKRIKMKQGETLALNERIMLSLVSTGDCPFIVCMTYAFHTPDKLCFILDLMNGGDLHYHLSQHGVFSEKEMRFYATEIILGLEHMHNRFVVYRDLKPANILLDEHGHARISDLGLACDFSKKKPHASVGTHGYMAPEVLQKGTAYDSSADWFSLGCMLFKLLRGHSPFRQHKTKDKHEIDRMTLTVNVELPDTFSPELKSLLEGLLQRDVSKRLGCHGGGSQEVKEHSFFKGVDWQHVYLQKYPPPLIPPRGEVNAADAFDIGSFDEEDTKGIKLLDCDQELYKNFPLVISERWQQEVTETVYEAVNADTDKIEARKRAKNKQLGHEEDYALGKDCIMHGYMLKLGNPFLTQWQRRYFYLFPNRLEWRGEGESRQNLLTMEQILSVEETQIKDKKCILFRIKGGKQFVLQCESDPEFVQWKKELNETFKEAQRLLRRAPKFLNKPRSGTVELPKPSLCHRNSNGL
Sequence of NEK9 (Q8TD19 whole entry): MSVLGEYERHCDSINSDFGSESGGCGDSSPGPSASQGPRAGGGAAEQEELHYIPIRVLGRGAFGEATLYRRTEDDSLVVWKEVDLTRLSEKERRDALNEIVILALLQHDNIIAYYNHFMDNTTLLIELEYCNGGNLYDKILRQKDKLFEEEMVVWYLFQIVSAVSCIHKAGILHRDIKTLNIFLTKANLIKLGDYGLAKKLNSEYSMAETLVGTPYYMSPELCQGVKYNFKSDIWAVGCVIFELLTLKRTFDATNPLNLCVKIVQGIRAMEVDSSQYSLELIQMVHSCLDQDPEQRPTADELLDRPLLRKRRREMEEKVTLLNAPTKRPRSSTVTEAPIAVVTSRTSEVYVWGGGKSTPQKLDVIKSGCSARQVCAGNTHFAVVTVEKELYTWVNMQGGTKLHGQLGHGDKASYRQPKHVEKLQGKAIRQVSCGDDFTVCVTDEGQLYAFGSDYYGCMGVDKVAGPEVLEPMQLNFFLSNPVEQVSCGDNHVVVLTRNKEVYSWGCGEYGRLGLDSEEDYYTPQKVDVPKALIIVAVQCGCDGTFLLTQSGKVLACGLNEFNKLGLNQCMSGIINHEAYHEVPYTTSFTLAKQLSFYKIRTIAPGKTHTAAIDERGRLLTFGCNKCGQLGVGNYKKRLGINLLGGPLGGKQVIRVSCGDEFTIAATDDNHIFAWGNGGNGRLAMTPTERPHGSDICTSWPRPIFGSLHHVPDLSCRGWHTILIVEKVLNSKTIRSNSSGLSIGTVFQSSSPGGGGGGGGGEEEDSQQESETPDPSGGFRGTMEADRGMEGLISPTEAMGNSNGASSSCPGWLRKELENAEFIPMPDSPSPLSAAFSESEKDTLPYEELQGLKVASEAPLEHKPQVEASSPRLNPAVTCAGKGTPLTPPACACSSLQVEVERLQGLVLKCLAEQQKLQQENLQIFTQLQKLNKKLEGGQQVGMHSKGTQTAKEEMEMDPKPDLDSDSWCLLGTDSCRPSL
T20 sequence (Q09013 whole entry): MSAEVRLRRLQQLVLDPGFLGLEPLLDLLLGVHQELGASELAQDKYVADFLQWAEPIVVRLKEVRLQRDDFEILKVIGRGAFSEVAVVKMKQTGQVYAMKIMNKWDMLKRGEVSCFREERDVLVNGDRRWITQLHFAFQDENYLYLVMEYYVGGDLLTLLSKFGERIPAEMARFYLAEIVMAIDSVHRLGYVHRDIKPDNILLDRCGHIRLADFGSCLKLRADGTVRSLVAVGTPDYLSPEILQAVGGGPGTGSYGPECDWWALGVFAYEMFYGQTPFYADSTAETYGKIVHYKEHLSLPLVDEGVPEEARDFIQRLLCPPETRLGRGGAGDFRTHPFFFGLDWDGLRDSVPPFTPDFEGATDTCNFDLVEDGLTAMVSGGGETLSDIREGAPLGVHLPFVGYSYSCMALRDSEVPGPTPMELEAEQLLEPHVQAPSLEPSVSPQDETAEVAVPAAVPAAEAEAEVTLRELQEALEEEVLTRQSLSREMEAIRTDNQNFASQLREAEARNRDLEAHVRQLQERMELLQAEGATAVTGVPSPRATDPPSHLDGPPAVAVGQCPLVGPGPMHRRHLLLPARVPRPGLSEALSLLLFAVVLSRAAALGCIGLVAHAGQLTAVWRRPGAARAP
T9 sequence (O14936 whole entry): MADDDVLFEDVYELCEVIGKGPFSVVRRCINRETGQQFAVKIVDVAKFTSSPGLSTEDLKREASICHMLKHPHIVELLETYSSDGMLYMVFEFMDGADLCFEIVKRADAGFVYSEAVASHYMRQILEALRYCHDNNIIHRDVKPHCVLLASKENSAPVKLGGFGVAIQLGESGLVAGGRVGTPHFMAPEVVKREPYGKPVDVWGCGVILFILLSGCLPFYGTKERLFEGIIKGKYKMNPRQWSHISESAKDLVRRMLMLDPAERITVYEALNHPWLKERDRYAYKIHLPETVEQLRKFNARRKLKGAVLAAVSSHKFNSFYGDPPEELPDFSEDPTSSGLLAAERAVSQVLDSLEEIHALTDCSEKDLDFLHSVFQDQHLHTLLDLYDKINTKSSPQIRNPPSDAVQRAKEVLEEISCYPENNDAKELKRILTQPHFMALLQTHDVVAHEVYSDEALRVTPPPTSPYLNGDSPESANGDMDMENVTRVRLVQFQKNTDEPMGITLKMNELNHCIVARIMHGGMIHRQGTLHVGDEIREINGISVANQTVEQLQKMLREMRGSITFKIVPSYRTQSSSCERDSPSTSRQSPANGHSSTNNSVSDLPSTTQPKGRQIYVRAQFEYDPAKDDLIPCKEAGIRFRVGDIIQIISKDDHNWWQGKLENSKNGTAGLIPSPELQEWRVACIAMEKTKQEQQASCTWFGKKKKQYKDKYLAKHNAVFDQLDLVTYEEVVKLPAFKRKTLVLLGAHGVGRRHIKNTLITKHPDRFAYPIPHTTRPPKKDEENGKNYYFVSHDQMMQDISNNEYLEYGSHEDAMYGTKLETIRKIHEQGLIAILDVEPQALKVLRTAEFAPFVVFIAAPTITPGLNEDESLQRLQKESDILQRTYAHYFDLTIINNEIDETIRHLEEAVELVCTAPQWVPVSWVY

A word on the IC50: it is the concentration at which inhibition is half-maximal. Consider `CSc1nc(-c2cccc(NC(=O)c3cccc4c3NC(=O)c3ccccc3N4)c2)c(-c2ccnc(NC(C)=O)c2)[nH]1` [Compound 2], for which, on WT EGFR kinase domain, the IC50 was less than 10 nM.

Regarding `C=CC(=O)Nc1ccc(OC)c(Nc2cc(-c3[nH]c(CC)nc3-c3cccc(NC(=O)c4cccc5c4NC(=O)c4ccccc4N5)c3)ccn2)c1` [Compound 4], the POC is on record as 86% of control at MLCK; 67% of control at PRKD3; 54% of control at BTK; 98% of control on CSNK1G3; 91% of control at CSNK1A1L; 8.3% of control on EGFR(L858R+T790M). For the same compound, the POC on MLK2 is 97% of control; on SRC, 73% of control; on S6K1 it was 100% of control; at CAMK2D, 88% of control; at CAMK1, 81% of control; at CDK4-cyclinD1, 94% of control. The POC at CASK was 97% of control; at ACVR2A it was 77% of control; at TNK1, 22% of control; on GRK3 it was 100% of control; at CSNK1G2, 91% of control; at YANK3 it was 96% of control. The POC at HPK1 is 45% of control; on DAPK1 it was 86% of control; in [1], 100% of control; on CSNK1E it was 88% of control; at YSK1, 76% of control; on ALK(C1156Y) it was 87% of control. Further, the POC in [2] is on record as 90% of control; on HUNK it was 32% of control; at NEK9, 83% of control; at PIK3CA(E545K), 100% of control; at MEK1, 100% of control; at ERBB2, 18% of control. In addition, the POC at RIPK4 is 100% of control; at p38-gamma, 100% of control; at AURKA, 90% of control; at MEK6, 73% of control; on DMPK, 45% of control; on MAP3K15, 74% of control. The POC at WEE2 is given as 98% of control; at KIT(L576P), 84% of control; on CAMK1G, 100% of control. The “selectivity score S(35)” value in the assay on 468 kinases worked out at 0.084.

The record behind these values is PMC10879502, “Linking ATP and allosteric sites to achieve superadditive binding with bivalent EGFR kinase inhibitors” (Communications Chemistry, 2024).
